The values below come from ChEMBL document CHEMBL1759859, “Sargachromanols as inhibitors of Na+/K+ ATPase and isocitrate lyase” (Bioorg Med Chem Lett, 2011).

In general, IC50 refers to the midpoint of a concentration-inhibition curve. In general, MIC refers to the smallest concentration in the dilution series that meets the test's criterion for growth inhibition. A higher MIC goes with a less susceptible organism.

One assay has as its target Isocitrate lyase (Candida albicans, UniProt Q9P8Q7). The experiment in a line: Inhibition of Candida albicans ICL assessed as formation of glyoxylate phenylhydrazone by spectrophotometry.
Another assay has as its system Candida albicans. In words: Antifungal activity against Candida albicans ATCC 10231 at 100 ug/ml after 2 weeks. The format is functional, organism-based.
In the next assay the test system is Salmonella typhimurium. In words: Antibacterial activity against Salmonella Typhimurium ATCC 14028 after 24 hrs by broth dilution method. Type of assay: functional, Salmonella enterica subsp. enterica serovar Typhimurium. As to conditions: Salmonella enterica, ATCC 14028, 24 h. In general terms: Broth dilution looks for growth in wells or tubes with falling amounts of substance.

In assay [1] the test system is Trichophyton mentagrophytes. In words: Antifungal activity against Trichophyton mentagrophytes IFO 40996 at 100 ug/ml after 2 weeks. Type of assay: functional, organism-based.
Another assay concerns Bacillus subtilis. The experiment in a line: Antibacterial activity against Bacillus subtilis ATCC 6633 after 24 hrs by broth dilution method. The format is functional. As to conditions: ATCC 6633, 24 h.
In a further assay the test system is Proteus vulgaris. The experiment in a line: Antibacterial activity against Proteus vulgaris ATCC 3851 after 24 hrs by broth dilution method. Type of assay: functional. The settings on record: ATCC 3851, 24 h.
Another assay deals with Trichophyton rubrum. The experiment in a line: Antifungal activity against Trichophyton rubrum IFO 9185 at 100 ug/ml after 2 weeks. Type of assay: functional, organism-based.
The subject of the next assay is Micrococcus luteus. In words: Antibacterial activity against Micrococcus luteus IFC 12708 after 24 hrs by broth dilution method. The format is functional. The settings on record: IFC 12708, 24 h.
For a further assay, the system named is Aspergillus fumigatus. In words: Antifungal activity against Aspergillus fumigatus HIC 6094 at 100 ug/ml after 2 weeks. The format is functional, organism-based.
Assay [2] in a line: Inhibition of porcine cerebral cortex Na+/K+ ATPase by spectrophotometry. Type of assay: tissue-based, Sus scrofa.

Structures are written as SMILES. ≈ marks a conversion by molar mass, not a printed value. Calls of active or inactive are those of the source.

Isocitrate lyase, sequence (Q9P8Q7 whole entry): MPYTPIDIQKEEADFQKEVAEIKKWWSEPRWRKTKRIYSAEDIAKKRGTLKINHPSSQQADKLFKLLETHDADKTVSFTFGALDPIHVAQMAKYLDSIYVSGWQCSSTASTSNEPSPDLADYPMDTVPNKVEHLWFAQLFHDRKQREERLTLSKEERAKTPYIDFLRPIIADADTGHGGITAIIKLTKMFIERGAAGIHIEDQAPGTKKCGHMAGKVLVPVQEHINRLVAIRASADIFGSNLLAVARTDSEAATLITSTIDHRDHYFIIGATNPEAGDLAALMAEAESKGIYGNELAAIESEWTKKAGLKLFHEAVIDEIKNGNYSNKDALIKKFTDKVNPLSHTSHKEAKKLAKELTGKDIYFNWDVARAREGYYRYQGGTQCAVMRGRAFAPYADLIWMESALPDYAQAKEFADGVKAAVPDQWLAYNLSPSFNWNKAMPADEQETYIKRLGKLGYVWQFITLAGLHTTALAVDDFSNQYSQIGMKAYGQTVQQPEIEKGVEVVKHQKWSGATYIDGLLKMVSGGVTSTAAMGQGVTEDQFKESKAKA

Take `CC(C)=C[C@@H](O)[C@@H](O)/C(C)=C/CC/C(C)=C/CC[C@]1(C)CCc2cc(O)cc(C)c2O1` [SARGACHROMANO D]: the IC50 at Isocitrate lyase was > 467 µM.
On the same count and under the same terms, the figure for `C/C(=C\CC[C@]1(C)CCc2cc(O)cc(C)c2O1)C/C=C\C(C)C(=O)[C@H](O)CC(C)C` (stereo partly drawn) [SARGACHROMANOL H] is > 467 µM; for `CC(C)=C[C@@H]1C(=O)C(C)=C[C@H]1C/C(C)=C/CC[C@]1(C)CCc2cc(O)cc(C)c2O1` [SARGACHROMANOL P] it is 149 µM; for `CC(C)=C[C@@H](O)C(=O)/C(C)=C/CC/C(C)=C/CC[C@]1(C)CCc2cc(O)cc(C)c2O1` [SARGACHROMANOL G] it is > 469 µM.
Take `CC(C)=C[C@@H](O)C(=O)C(C)CCC/C(C)=C/CC[C@]1(C)CCc2cc(O)cc(C)c2O1` (stereo partly drawn) [SARGACHROMANOL I]: the IC50 on Isocitrate lyase was > 467 µM.
Regarding `CC(C)=CC[C@@H](O)/C(C)=C/CC/C(C)=C/CC[C@]1(C)CCc2cc(O)cc(C)c2O1` [SARGACHROMANOL C], the IC50 on Isocitrate lyase is > 485 µM.
With `CC(C)=C/C(C=O)=C(\C)CCC/C(C)=C/CC[C@]1(C)CCc2cc(O)cc(C)c2O1` [SARGACHROMANO N], on Isocitrate lyase, the IC50 was > 487 µM.
As for `CC(C)=C/C(C=O)=C(/C)CCC/C(C)=C/CC[C@]1(C)CCc2cc(O)cc(C)c2O1` [SARGACHROMANOL M], the IC50 at Isocitrate lyase is 173 µM.
Turning to `CC(C)=CC(CO)/C(C)=C/CC/C(C)=C/CC[C@]1(C)CCc2cc(O)cc(C)c2O1` (stereo partly drawn) [SARGACHROMANOL L], the IC50 at Isocitrate lyase is 117 µM.
On the same count and under the same terms, to `COC(/C(C)=C/CC/C(C)=C/CC[C@]1(C)CCc2cc(O)cc(C)c2O1)[C@H](O)C=C(C)C` (stereo partly drawn) [SARGACHROMANOL F] belongs > 452 µM; to `CC(C)=CC(C(=O)O)/C(C)=C/CC/C(C)=C/CC[C@]1(C)CCc2cc(O)cc(C)c2O1` (stereo partly drawn) [SARGACHROMANOL O], > 469 µM; to `C/C(=C\CC[C@]1(C)CCc2cc(O)cc(C)c2O1)CCCC(C)C(=O)[C@@H](O)CC(C)C` (stereo partly drawn) [SARGACHROMANOL J], > 464 µM.
For `CC1(C)S[C@@H]2[C@H](NC(=O)[C@H](N)c3ccccc3)C(=O)N2[C@H]1C(=O)O` [AMPICILLIN], the inhibition entry (with Candida albicans; in assay [1]; in the assay with Trichophyton rubrum; with Aspergillus fumigatus) was “inactive” in each case. Besides, the MIC in the assay on Salmonella typhimurium, with Bacillus subtilis, in the assay with Proteus vulgaris and against Micrococcus luteus was 0.78 µg/mL (≈ 2.23 µM) throughout.
Consider `C[C@@H]1O[C@@H](O[C@H]2C[C@@H](O)[C@]3(CO)[C@H]4[C@H](O)C[C@]5(C)[C@@H](C6=CC(=O)OC6)CC[C@]5(O)[C@@H]4CC[C@]3(O)C2)[C@H](O)[C@H](O)[C@H]1O` [OUABAIN], for which the inhibition result (in the assay with Candida albicans; in [1]; in the assay on Trichophyton rubrum; in the assay on Aspergillus fumigatus) was “inactive” throughout. Further, in [2], the IC50 is 4.6 µM.
Consider `O=C(O)CC[N+](=O)[O-]`, for which the inhibition entry (with Candida albicans; in assay [1]; in the assay on Trichophyton rubrum; in the assay on Aspergillus fumigatus) was “inactive” each time.
As to `CC(C)=CC(=O)[C@@H](O)/C(C)=C/CC/C(C)=C/CC[C@]1(C)CCc2cc(O)cc(C)c2O1` [SARGACHROMANOL K], the IC50 on Isocitrate lyase is > 469 µM.
For the molecule `CC(C)=C[C@H](O)[C@@H](O)/C(C)=C/CC/C(C)=C/CC[C@]1(C)CCc2cc(O)cc(C)c2O1` [SARGACHROMANOL E], the IC50 on Isocitrate lyase is > 467 µM.
In the case of `C/C(C=O)=C\CC/C(C)=C/CC[C@]1(C)CCc2cc(O)cc(C)c2O1` [SARGACHROMANOL A], the IC50 at Isocitrate lyase is 185 µM.
With `C/C(=C\CC/C(C)=C/CC[C@]1(C)CCc2cc(O)cc(C)c2O1)CO` [SARGACHROMANOL B], at Isocitrate lyase, the IC50 was > 581 µM.
